Data published in patent US20240041042A1, “1-(PYRIDYL)-5-AZINYLPYRAZOLE DERIVATIVES, AND THEIR USE FOR CONTROL OF UNDESIRED PLANT GROWTH” (Bayer Aktiengesellschaft, priority 2020, published 2024).
Read-outs that look alike come from different tables or passages of the source.

Columns and labels:
Assay type in all cases: in vivo
[1] = system: Alopecurus myosuroides (ALOMY); assay: Pre-emergence herbicidal action against ALOMY; settings: scored visually after about 3 weeks, 100% = plants have died
Procedure, shortened: (§1)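 Greenhouse pot trial: seeds sown, soil-covered, sprayed before emergence with compound in water (0.5% additive; 600 l/ha; ≤320 g/ha). Scoring visual, ~3 weeks, 0–100% scale vs untreated.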

[2] = system: Triticum aestivum (TRZAS); settings: crop plant compatibility, effect vs untreated controls
Procedure, shortened: (§2)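 Greenhouse crops in sandy loam sprayed post-emergence at the one-leaf stage, 2–3 weeks after sowing, with WP or EC formulations in water plus 0.5% additive at 600 l/ha. Damage rated visually about 3 weeks later versus untreated controls (0% = like control, 100% = dead); suffixes a–c denote different doses.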

[3] = system: Oryza sativa (ORYSA); settings: crop plant compatibility
Procedure, shortened: as §2

[4] = system: Lolium rigidum (LOLRI); assay: Pre-emergence herbicidal action against LOLRI
Procedure, shortened: as §1

[5] = system: Verconica persica (VERPE); assay: Post-emergence herbicidal action against VERPE
Procedure, shortened: (§3)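 Values are percent visual activity (0% like control, 100% plants dead) after about 3 weeks in the greenhouse. Treatment: post-emergence spray at one-leaf stage, 600 l/ha spray volume, 0.5% additive, doses 320 g/ha or lower.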

[6] = system: Setaria viridis (SETVI); assay: Post-emergence herbicidal action against SETVI
Procedure, shortened: as §3

[7] = system: Lolium rigidum (LOLRI); assay: Post-emergence herbicidal action against LOLRI
Procedure, shortened: as §3

[8] = system: Abutilon theophrasti (ABUTH); assay: Pre-emergence herbicidal action against ABUTH; settings: 100% = plants have died
Procedure, shortened: as §1

[9] = system: Echinochloa crus-galli (ECHCG); assay: Post-emergence herbicidal action against ECHCG
Procedure, shortened: as §3

[10] = system: Verconica persica (VERPE); assay: Pre-emergence herbicidal action against VERPE; settings: dosage 320 g/ha
Procedure, shortened: as §1

[11] = system: Echinochloa crus-galli (ECHCG); assay: Pre-emergence herbicidal action against ECHCG
Procedure, shortened: as §1

[12] = system: Alopecurus myosuroides (ALOMY); assay: Post-emergence herbicidal action against ALOMY; settings: visual rating about 3 weeks after treatment vs untreated controls (100% = plants have died, 0% = like control plants)
Procedure, shortened: as §3

[13] = system: Viola tricolor (VIOTR); assay: Pre-emergence herbicidal action against VIOTR
Procedure, shortened: as §1

[14] = system: Pharbitis purpurea (PHBPU); assay: Pre-emergence herbicidal action against PHBPU
Procedure, shortened: as §1

[15] = system: Avena fatua (AVEFA); assay: Pre-emergence herbicidal action against AVEFA; settings: visual scoring after about 3 weeks vs untreated controls
Procedure, shortened: as §1

[16] = system: Amaranthus retroflexus (AMARE); assay: Pre-emergence herbicidal action against AMARE; settings: visual scoring after about 3 weeks vs untreated controls
Procedure, shortened: as §1

[17] = system: Amaranthus retroflexus (AMARE); assay: Post-emergence herbicidal action against AMARE
Procedure, shortened: as §3

[18] = system: Polygonum convolvulus (POLCO); assay: Pre-emergence herbicidal action against POLCO; settings: dosage 320 g/ha
Procedure, shortened: as §1

[19] = system: Abutilon theophrasti (ABUTH); assay: Post-emergence herbicidal action against ABUTH; settings: visual rating about 3 weeks after treatment vs untreated controls (100% = plants have died, 0% = like control plants)
Procedure, shortened: as §3

[20] = system: Viola tricolor (VIOTR); assay: Post-emergence herbicidal action against VIOTR
Procedure, shortened: as §3

[21] = system: Avena fatua (AVEFA); assay: Post-emergence herbicidal action against AVEFA; settings: visual rating about 3 weeks after treatment
Procedure, shortened: as §3

[22] = system: Matricaria inodora (MATIN); assay: Pre-emergence herbicidal action against MATIN
Procedure, shortened: as §1

[23] = system: Setaria viridis (SETVI); assay: Pre-emergence herbicidal action against SETVI
Procedure, shortened: as §1

[24] = system: Polygonum convolvulus (POLCO); assay: Post-emergence herbicidal action against POLCO
Procedure, shortened: as §3

[25] = system: Zea mays (ZEAMX); settings: 20 g/ha, ZEAMX, effect in comparison to untreated controls
Procedure, shortened: as §2

[26] = system: Pharbitis purpurea (PHBPU); assay: Post-emergence herbicidal action against PHBPU; settings: dosage 80 g/ha
Procedure, shortened: as §3

[27] = system: Matricaria inodora (MATIN); assay: Post-emergence herbicidal action against MATIN; settings: dosage 80 g/ha
Procedure, shortened: as §3

[28] = 80 g/ha, effect in comparison to untreated controls
[29] = Dosage column 320 g/ha (title prints 3200 g/ha), scored visually after about 3 weeks

Compound	Pre-emergence action against ALOMY ([1]; 80 g/ha) [%]	Pre-emergence action against ALOMY ([1]; 320 g/ha) [%]	Post-emergence action against ORYSA in % [3, 28] [%]	Pre-emergence action against LOLRI in % ([4]; dosage 320 g/ha) [%]	Post-emergence action against SETVI in % ([6]; dosage 80 g/ha) [%]	Post-emergence action against LOLRI in % ([7]; dosage 80 g/ha) [%]	Pre-emergence action against ABUTH [8, 29] [%]	Post-emergence action against ECHCG in % ([9]; dosage 80 g/ha) [%]	Pre-emergence action against VERPE in % [10] [%]	Pre-emergence action against ECHCG in % ([11]; dosage 80 g/ha) [%]	Pre-emergence action against ECHCG in % ([11]; dosage 320 g/ha) [%]	Post-emergence action against ALOMY in % ([12]; 80 g/ha) [%]	Pre-emergence action against VIOTR in % ([13]; 320 g/ha, Viola tricolor) [%]	Pre-emergence action against VIOTR in % ([13]; dosage 80 g/ha) [%]	Pre-emergence action against PHBPU in % ([14]; dosage 320 g/ha) [%]	Pre-emergence action against AVEFA in % ([15]; 320 g/ha) [%]	Pre-emergence action against AMARE in % ([16]; 80 g/ha) [%]	Pre-emergence action against AMARE in % ([16]; 320 g/ha) [%]	Pre-emergence action against POLCO in % [18] [%]	Post-emergence action against ABUTH in % ([19]; 80 g/ha) [%]	also measured
CCOC(=O)COc1nn(-c2ccnc(Cl)c2)c(-c2ccc(F)nc2)c1Br [III-24]	100	100	0	100	100	100	100	80	100	90	100	100	100	100	100	100	100	100	100	90	Post-emergence action against TRZAS in % ([2]; 80 g/ha): 0%; Post-emergence action against TRZAS in % ([2]; 320 g/ha): 0%; Pre-emergence action against LOLRI in % ([4]; dosage 80 g/ha): 100%; Post-emergence action against VERPE in % ([5]; 320 g/ha, VERPE): 80%; Post-emergence action against SETVI in % ([6]; dosage 320 g/ha): 100%; Post-emergence action against LOLRI in % ([7]; dosage 320 g/ha): 100%; Pre-emergence action against ABUTH ([8]; 80 g/ha, scored visually after about 3 weeks vs untreated controls, 0% = like control plants): 90%; Post-emergence action against ECHCG in % ([9]; dosage 320 g/ha): 100%; Post-emergence action against ALOMY in % ([12]; 320 g/ha): 100%; Pre-emergence action against AVEFA in % ([15]; 80 g/ha): 100%; Post-emergence action against AMARE in % ([17]; 320 g/ha, visual rating about 3 weeks after treatment): 100%; Post-emergence action against ABUTH in % ([19]; 320 g/ha): 90%; Post-emergence action against VIOTR in % ([20]; 80 g/ha): 80%; Post-emergence action against VIOTR in % ([20]; 320 g/ha): 90%; Post-emergence action against AVEFA in % ([21]; 320 g/ha): 80%; Pre-emergence action against MATIN in % ([22]; dosage 320 g/ha): 100%; Pre-emergence action against SETVI in % ([23]; dosage 80 g/ha): 100%; Pre-emergence action against SETVI in % ([23]; dosage 320 g/ha): 100%; Post-emergence action against POLCO in % ([24]; dosage 320 g/ha): 90%
COC(=O)[C@H](C)COC(=O)COc1nn(-c2ccccn2)c(-c2cncc(F)c2)c1Cl [Example I-74]	80	100	10	100	80	90	90	90	100	80	100	100	100	90	90	80	90	100	100	80	Post-emergence action against TRZAS in % ([2]; 20 g/ha): 0%; Post-emergence action against ZEAMX in % (crop plant compatibility) [25]: 10%; Post-emergence action against ORYSA in % ([3]; 20 g/ha, effect vs untreated controls): 0%; Post-emergence action against VERPE in % ([5]; dosage 80 g/ha): 80%; Post-emergence action against PHBPU in % [26]: 90%; Pre-emergence action against PHBPU in % ([14]; dosage 80 g/ha): 90%; Post-emergence action against AMARE in % ([17]; 80 g/ha, visual rating about 3 weeks after treatment vs untreated controls (100% = plants have died, 0% = like control plants)): 80%; Post-emergence action against AVEFA in % ([21]; 80 g/ha): 90%; Pre-emergence action against MATIN in % ([22]; dosage 80 g/ha): 90%; Pre-emergence action against MATIN in % ([22]; dosage 320 g/ha): 90%; Post-emergence action against MATIN in % [27]: 90%; Pre-emergence action against SETVI in % ([23]; dosage 80 g/ha): 90%; Pre-emergence action against SETVI in % ([23]; dosage 320 g/ha): 100%; Post-emergence action against POLCO in % ([24]; dosage 80 g/ha): 90%
